Results on 1 substance are retold here after patent publication EP0200818A1, “Derivatives of the pluramycin group having anti-tumor activity, process for their preparation and their use as medicaments” (MICROBIAL CHEMISTRY RESEARCH FOUNDATION, priority 1984, dated 1986).

Series [1] is described as follows: Acute toxicity (LD50), single intraperitoneal injection. The series is classed as in vivo. The following applies: single intraperitoneal injection in mice. As for the experimental part: The LD50 of 5',6'-dehydrokidamycin for a single intraperitoneal injection in mice was 100 mg/kg.
Series [2] has as its system L 1210 leukemia cells. The experiment in a line: Anti-tumor activity: life prolongation of mice transplanted intraperitoneally with L 1210 leukemia cells. Type of series: in vivo, CDF1 mice. As to conditions: observed for 30 days, survival of physiological saline control mice = 100. As for the experimental part:
A suspension of 1 x 10^5 L 1210 leukemia cells was transplated intraperitoneally in each of the CDF1 mice tested. Thereafter, 5',6'-dehydrokidamycin was injected intraperitoneally for 10 days in predetermined amounts, 10, 5, 2.5, 1.25, 0.625 and 0.3125 mg/kg.

The subject of series [3] is cultured leukemia cell L 1210. In words: Cytotoxicity: growth inhibition of cultured leukemia cells. Type of series: cell-based. The following applies: growth of cultured leukemia cell L 1210. The protocol: The growth of cultured leukemia cell L 1210 was inhibited by 0.07 µg/ml (IC50) of 5',6'~dehydrokidamycin.

In the case of 5',6'-dehydrokidamycin, in series [1], the median lethal dose (LD50) turned out to be 100 mg/kg. Besides, the Percent life prolongation is 147% in series [2] (0.3125 mg/kg/day intraperitoneally for 10 days); 133% in series [2] (0.625 mg/kg/day intraperitoneally for 10 days); 133% in series [2] (1.25 mg/kg/day intraperitoneally for 10 days); 133% in series [2] (2.5 mg/kg/day intraperitoneally for 10 days); 173% in series [2] (5 mg/kg/day intraperitoneally for 10 days); 153% in series [2] (10 mg/kg/day intraperitoneally for 10 days). Besides, in series [3], the concentration for half-maximal inhibition (IC50) turned out to be 0.07 µg/mL.

In general, LD50 refers to the dose at which mortality reaches 50%. Low values mean a more toxic substance, high ones a less toxic substance. As usually defined, the IC50 is the point on the concentration scale where inhibition reaches its midpoint.
